In patent US20170281573A1, “MEDICINAL COMPOSITION FOR ENHANCED DELIVERY OF TRITERPENES” (PHARCON INC., priority 2016, published 2017):
Where a name gives a salt, the structure may show the parent alone.

Assay: Water solubility
Format: physicochemical

With `C[C@H]1[C@H](C)CC[C@]2(C(=O)O)CC[C@]3(C)C(=CC[C@@H]4[C@@]5(C)C[C@@H](O)[C@H](O)C(C)(C)[C@@H]5CC[C@]43C)[C@H]12` [Corosolic acid] the water solubility was “below 1 mcg/ml”.
With `C[C@H]1[C@H](C)CC[C@]2(C(=O)O)CC[C@]3(C)C(=CC[C@@H]4[C@@]5(C)C[C@@H](O)[C@H](O)C(C)(C)[C@@H]5CC[C@]43C)[C@H]12` [sodium salt of this acid] the water solubility was “less than 5 mcg/ml”.
